Results from BigSolDB 2.1.

COc1cc(/C=C/C(=O)O)cc(OC)c1OC
solubility (mole fraction)
Conditions | 278.15 K | 283.15 K | 288.15 K | 293.15 K | 298.15 K | 303.15 K | 308.15 K | 313.15 K | 318.15 K | 323.15 K
in acetone | 0.0175 | 0.0201 | 0.0232 | 0.0265 | 0.0301 | 0.0343 | 0.0391 | 0.044 | 0.0492 | 0.0551
in ethanol | 0.00626 | 0.0085 | 0.0114 | 0.0153 | 0.0201 | 0.0261 | 0.0341 | 0.044 | 0.057 | 0.0725
in isopropanol | 0.00465 | 0.0063 | 0.00867 | 0.0121 | 0.0163 | 0.0215 | 0.0289 | 0.039 | 0.0511 | 0.0665
in methanol | 0.00662 | 0.00922 | 0.0127 | 0.0175 | 0.0236 | 0.0315 | 0.0417 | 0.0548 | 0.0717 | 0.0943
in water | 4.67e-05 | 5.3e-05 | 6.05e-05 | 6.8e-05 | 7.61e-05 | 8.55e-05 | 9.58e-05 | 0.000107 | 0.000118 | 0.000131
